The values that follow come from PMC2096555 (Purinergic Signalling, 2005).

By Km is commonly meant the substrate concentration at which the rate is half of its maximum. A word on the Ki: it is the dissociation constant of the complex between target and ligand, obtained from inhibition or displacement. Low values mean a stronger hold on the target, high ones a looser hold on the target.

Assay [1] addresses T1, rat NTPDase3 (Rattus norvegicus, UniProt A6I415).
T1 sequence (A6I415 1-529): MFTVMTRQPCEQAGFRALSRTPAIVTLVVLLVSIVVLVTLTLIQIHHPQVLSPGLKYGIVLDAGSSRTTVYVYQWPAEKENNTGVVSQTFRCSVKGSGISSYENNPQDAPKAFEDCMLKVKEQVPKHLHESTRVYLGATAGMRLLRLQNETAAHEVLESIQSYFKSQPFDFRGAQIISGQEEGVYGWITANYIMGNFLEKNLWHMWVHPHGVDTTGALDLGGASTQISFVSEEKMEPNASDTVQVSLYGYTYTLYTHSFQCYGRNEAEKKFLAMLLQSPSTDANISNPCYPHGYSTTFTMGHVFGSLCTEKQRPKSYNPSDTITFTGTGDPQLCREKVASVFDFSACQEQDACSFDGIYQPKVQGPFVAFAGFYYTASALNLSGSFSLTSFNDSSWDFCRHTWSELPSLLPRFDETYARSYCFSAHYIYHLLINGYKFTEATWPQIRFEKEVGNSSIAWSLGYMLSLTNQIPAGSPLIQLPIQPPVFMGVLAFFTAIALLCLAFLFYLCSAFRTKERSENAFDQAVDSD
The assay is classed as biochemical.

The subject of a further assay is human NTPDase3. The settings on record: read-out: Reported Km human NTPDase3; ATP; respectively ref 32, 40; cited from earlier work.
In another assay the test system is human NTPDase1. The settings on record: read-out: Reported Km human NTPDase1; ATP; cited from earlier work.
A further assay deals with recombinant rat NTPDase1. The settings on record: read-out: Reported Km recombinant rat NTPDase1; ATP; cited from earlier work.
Another assay has as its system mouse NTPDase3. The settings on record: read-out: Reported Km mouse NTPDase3; ATP; cited from earlier work.
Assay [2] has as its target T2, rat NTPDase2 (Rattus norvegicus, UniProt O35795).
T2 sequence (O35795 1-495): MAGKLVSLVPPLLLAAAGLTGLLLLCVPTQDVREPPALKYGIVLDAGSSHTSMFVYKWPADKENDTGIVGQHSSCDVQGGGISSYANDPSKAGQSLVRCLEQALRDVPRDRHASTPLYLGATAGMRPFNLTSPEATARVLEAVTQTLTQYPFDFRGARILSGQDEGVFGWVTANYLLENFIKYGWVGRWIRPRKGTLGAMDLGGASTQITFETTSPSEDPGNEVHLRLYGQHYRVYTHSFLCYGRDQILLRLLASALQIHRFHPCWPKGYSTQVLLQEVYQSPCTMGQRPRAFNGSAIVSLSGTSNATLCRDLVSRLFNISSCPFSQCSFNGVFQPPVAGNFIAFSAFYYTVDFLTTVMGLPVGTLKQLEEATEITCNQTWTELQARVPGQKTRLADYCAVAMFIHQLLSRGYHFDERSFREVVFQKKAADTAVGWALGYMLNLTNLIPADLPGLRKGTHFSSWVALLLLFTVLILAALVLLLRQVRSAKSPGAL
The assay is classed as biochemical.

Another assay has as its system mouse NTPDase2. To be noted: read-out: Reported Km mouse NTPDase2; ATP; no reference given; cited from earlier work.
Another assay relates to mouse NTPDase1. The settings on record: read-out: Reported Km mouse NTPDase1; ATP; cited from earlier work.
For assay [3], the target named is T3, rat NTPDase1 (Rattus norvegicus, UniProt P97687).
T3 sequence (P97687 1-511): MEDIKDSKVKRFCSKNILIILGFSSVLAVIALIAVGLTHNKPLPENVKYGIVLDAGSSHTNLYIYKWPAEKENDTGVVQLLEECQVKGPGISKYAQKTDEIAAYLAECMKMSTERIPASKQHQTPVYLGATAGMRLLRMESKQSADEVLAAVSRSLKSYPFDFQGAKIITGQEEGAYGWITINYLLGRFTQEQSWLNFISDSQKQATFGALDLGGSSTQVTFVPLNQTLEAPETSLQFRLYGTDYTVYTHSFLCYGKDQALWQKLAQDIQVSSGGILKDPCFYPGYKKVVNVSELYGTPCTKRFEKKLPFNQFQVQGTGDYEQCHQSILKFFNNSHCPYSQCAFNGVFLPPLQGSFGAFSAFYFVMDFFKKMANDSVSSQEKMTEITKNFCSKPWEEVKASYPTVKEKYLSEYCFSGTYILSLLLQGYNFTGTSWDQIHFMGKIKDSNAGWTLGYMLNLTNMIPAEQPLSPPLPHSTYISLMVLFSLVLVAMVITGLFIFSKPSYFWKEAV
The assay is classed as biochemical.

In assay [4] the test system is rat superior cervical ganglionic cells. The settings on record: at 10 µM concentration; cited from earlier work.
Assay [5] deals with T3, rat NTPDase1. The assay is classed as biochemical. This is another data set of the same source.
In assay [6] the target is T1, rat NTPDase3. The assay is classed as biochemical. The source holds these as a separate data set.
The target in assay [7] is T2, rat NTPDase2. The assay is classed as biochemical. This is another data set of the same source.
Where [8] appears, read: substrate ATP, membrane preparation.

Several values for one entry are separate records, joined by “and”; a condition that tells them apart may be missing. Identical values can stand only once.

Consider `Nc1ncnc2c1ncn2[C@@H]1O[C@H](COP(=O)(O)OP(=O)(O)OP(=O)(O)O)[C@@H](O)[C@H]1O` [ATP], for which the Michaelis constant (Km) is 311 ± 4 µM at rat NTPDase3 [1] (read-out: Km ± SEM NTPDase3, substrate ATP 25-1000 µM, product ADP); 75 µM and 128 µM in the assay on human NTPDase3; 17 µM in the assay with human NTPDase1; 75 µM in the assay with recombinant rat NTPDase1; 11 µM with mouse NTPDase3; 203 ± 8 µM on rat NTPDase2 [2] (read-out: Km ± SEM NTPDase2, substrate ATP 25-1000 µM, product ADP). Also, the Michaelis constant (Km) is 37 µM with mouse NTPDase2; 12 µM in the assay on mouse NTPDase1; 76 ± 12 µM at rat NTPDase1 [3] (read-out: Km ± SEM NTPDase1, substrate ATP 10-1000 µM, product AMP). For the same compound, the “Vmax ± SEM NTPDase3” value at rat NTPDase3 [1] (setting [8]) is given as 0.010 ± 0.001 μmol/min/mg protein. The “Vmax ± SEM NTPDase2” value on rat NTPDase2 [2] (setting [8]) was 0.021 ± 0.002 μmol/min/mg protein. At rat NTPDase1 [3] (setting [8]), the “Vmax ± SEM NTPDase1” value stood at 0.023 ± 0.002 μmol/min/mg protein.
`OCCN(CCO)c1nc(N2CCCCC2)c2nc(N(CCO)CCO)nc(N3CCCCC3)c2n1` [Dipyridamole, dipyridamole]: the “inhibition of ATP hydrolysis” value in assay [4] is given as “effective inhibitor”. Also, the Ki on rat NTPDase1 [5], at rat NTPDase3 [6] and at rat NTPDase2 [7] was greater than 1000 µM in each case.
Consider `Cc1ccc(C(=O)Nc2ccc(S(=O)(=O)O)c3cc(S(=O)(=O)O)cc(S(=O)(=O)O)c23)cc1NC(=O)c1cccc(NC(=O)Nc2cccc(C(=O)Nc3cc(C(=O)Nc4ccc(S(=O)(=O)O)c5cc(S(=O)(=O)O)cc(S(=O)(=O)O)c45)ccc3C)c2)c1` [Suramin, suramin], for which the “Ki for NTPDase1 relative to NTPDase2” value on rat NTPDase1 [5] (ratio of Ki values) was “five fold higher”.
